In the NIST ThermoML archive (doi:10.1021/je900656c):
Numbers after ± are expanded uncertainties.

Experiments:
[1] = wn = mass fraction of the nth substance listed; settings: 303.15 K, 101 kPa, Liquid; for viscosity: Capillary tube (Ostwald / Ubbelohde) method; for mass density: Pycnometric method
[2] = 303.15 K, 101 kPa, Liquid; for viscosity: Capillary tube (Ostwald / Ubbelohde) method; for mass density: Pycnometric method

## CO [methanol] + COCCO
[1]; w2 = 0
  viscosity: 0.523 ± 0.01 mPa·s
  mass density: 782 ± 1 kg/m3

## COCCO [2-methoxyethan-1-ol] + CO
[1]; w1 = 0.1
  viscosity: 0.538 ± 0.011 mPa·s
  mass density: 798 ± 1 kg/m3
[1]; w1 = 0.2
  viscosity: 0.557 ± 0.011 mPa·s
  mass density: 817 ± 2 kg/m3
[1]; w1 = 0.3
  viscosity: 0.577 ± 0.011 mPa·s
  mass density: 833 ± 2 kg/m3
[1]; w1 = 1
  viscosity: 1.404 ± 0.023 mPa·s
  mass density: 956 ± 2 kg/m3

## CO [methanol]
[2]
  viscosity: 0.523 ± 0.01 mPa·s
  mass density: 782 ± 1 kg/m3

## COCCO [2-methoxyethan-1-ol]
[2]
  viscosity: 1.404 ± 0.023 mPa·s
  mass density: 956 ± 2 kg/m3
